Converted amounts (≈) assume the structure as drawn. Non-standard residues stand in square brackets, D forms with d. Residues, ends and D or L forms follow the SMILES beside them. Trp(6-Cl) = N[C@@H](Cc1c[nH]c2cc(Cl)ccc12)C(=O)O; Dip = N[C@H](C(=O)O)C(c1ccccc1)c1ccccc1; 2Nal = N[C@@H](Cc1ccc2ccccc2c1)C(=O)O; d2Nal = N[C@H](Cc1ccc2ccccc2c1)C(=O)O; Dab = NCC[C@H](N)C(=O)O
Key:
S. aureus ATCC 29213 = conditions: ATCC 29213
[1] = tested on: Methicillin-resistant Staphylococcus aureus MRSA (ATCC BAA-1556); conditions: ATCC BAA-1556
[2] = tested on: Escherichia coli (ATCC 25922); conditions: ATCC 25922
human red blood cells = tested on: human red blood cells; design: unit not given beside the values
[3] = tested on: Pseudomonas aeruginosa (ATCC 27883); conditions: ATCC 27883

Compound | MIC S. aureus ATCC 29213 (S. aureus ATCC 29213) [µg/mL] | MIC MRSA ATCC BAA-1556 [1] [µg/mL] | MIC E. coli ATCC 25922 [2] [µg/mL] | HC50 (human red blood cells) | MIC P. aeruginosa ATCC 27883 [3] [µg/mL]
N=C(N)NCCC[C@H](NC(=O)[C@H](CCCNC(=N)N)NC(=O)[C@H](CCCNC(=N)N)NC(=O)[C@@H](N)CCCNC(=N)N)C(=O)N[C@@H](Cc1c[nH]c2ccccc12)C(=O)N[C@H](C(=O)N[C@H](C(=O)O)C(c1ccccc1)c1ccccc1)C(c1ccccc1)c1ccccc1 [IFX-026-1, NH2-R-R-R-R-Trp-Dip-Dip-OH] (H-RRRRW[Dip][Dip]-OH) | 6.2 (≈ 4.86 µM) | 6.2 (≈ 4.86 µM) | 12.5 (≈ 9.8 µM) | 430 | 25 (≈ 19.6 µM)
N=C(N)NCCC[C@@H]1NC(=O)[C@H](CCCNC(=N)N)NC(=O)[C@H](CCCNC(=N)N)NC(=O)[C@H](C(c2ccccc2)c2ccccc2)NC(=O)[C@H](C(c2ccccc2)c2ccccc2)NC(=O)[C@H](C(c2ccccc2)c2ccccc2)NC(=O)[C@H](C(c2ccccc2)c2ccccc2)NC(=O)[C@H](CCCNC(=N)N)NC1=O [IFX-005, c[Arg-Arg-Arg-Arg-Dip-Dip-Dip-Dip]] (cyclo([Dip][Dip][Dip][Dip]RRRR)) | 3.1 (≈ 2.04 µM) | 6.2 (≈ 4.08 µM) | 25 (≈ 16.5 µM) | 95 | 25 (≈ 16.5 µM)
N=C(N)NCCC[C@@H]1NC(=O)[C@H](CCCNC(=N)N)NC(=O)[C@H](Cc2ccc3ccccc3c2)NC(=O)[C@H](Cc2ccc3ccccc3c2)NC(=O)[C@H](Cc2ccc3ccccc3c2)NC(=O)[C@H](CCCNC(=N)N)NC1=O [IFX-003, c[Arg-Arg-Arg-NaI-NaI-NaI]] (cyclo([2Nal][2Nal][2Nal]RRR)) | 3.1 (≈ 2.92 µM) | 6.2 (≈ 5.85 µM) | 25 (≈ 23.6 µM) | 240 | 50 (≈ 47.2 µM)
N=C(N)NCCC[C@@H]1NC(=O)[C@H](CCCNC(=N)N)NC(=O)[C@H](CCCNC(=N)N)NC(=O)[C@@H](Cc2c[nH]c3ccccc23)NC(=O)[C@@H](Cc2c[nH]c3ccccc23)NC(=O)[C@@H](Cc2c[nH]c3ccccc23)NC(=O)[C@@H](Cc2c[nH]c3ccccc23)NC(=O)[C@H](CCCNC(=N)N)NC1=O [IFX-035, c[Arg-Arg-Arg-Arg-trp-trp-trp-trp]] (cyclo(RRRR[dW][dW][dW][dW])) | 6.2 (≈ 4.53 µM) | 6.2 (≈ 4.53 µM) | 12.5 (≈ 9.13 µM) | 670 | 25 (≈ 18.3 µM)
N=C(N)NCCC[C@H](NC(=O)[C@H](CCCNC(=N)N)NC(=O)[C@H](CCCNC(=N)N)NC(=O)[C@@H](N)CCCNC(=N)N)C(=O)N[C@@H](Cc1ccc2ccccc2c1)C(=O)N[C@@H](Cc1c[nH]c2ccccc12)C(=O)N[C@@H](Cc1ccc2ccccc2c1)C(=O)O [IFX-030-1, NH2-R-R-R-R-NaI-Trp-NaI-OH] (H-RRRR[2Nal]W[2Nal]-OH) | 6.2 (≈ 5.07 µM) | 6.2 (≈ 5.07 µM) | 12.5 (≈ 10.2 µM) | 430 | 25 (≈ 20.4 µM)
N=C(N)NCCC[C@@H]1NC(=O)[C@H](CCN)NC(=O)[C@@H](CCCNC(=N)N)NC(=O)[C@H](CCCNC(=N)N)NC(=O)[C@@H](Cc2ccc3ccccc3c2)NC(=O)[C@@H](Cc2ccc3ccccc3c2)NC(=O)[C@H](Cc2c[nH]c3ccccc23)NC(=O)[C@@H](CCCNC(=N)N)NC1=O [IFX-055, c[Arg-arg-Dab-Arg-arg-Trp-naI-naI]] (cyclo([Dab]R[dR]W[d2Nal][d2Nal]R[dR])) | 32 (≈ 24.5 µM) | 32 (≈ 24.5 µM) | 16 (≈ 12.3 µM) | 575 | 32 (≈ 24.5 µM)
N=C(N)NCCC[C@@H]1NC(=O)[C@H](CCCNC(=N)N)NC(=O)[C@H](CCCNC(=N)N)NC(=O)[C@H](Cc2c[nH]c3cc(Cl)ccc23)NC(=O)[C@H](Cc2c[nH]c3cc(Cl)ccc23)NC(=O)[C@H](Cc2c[nH]c3cc(Cl)ccc23)NC(=O)[C@H](Cc2c[nH]c3cc(Cl)ccc23)NC(=O)[C@H](CCCNC(=N)N)NC1=O [IFX-040, c[Arg-Arg-Arg-Arg-6clW-6clW-6clW-6clW]] (cyclo(RRRR[Trp(6-Cl)][Trp(6-Cl)][Trp(6-Cl)][Trp(6-Cl)])) | 3.1 (≈ 2.06 µM) | 3.1 (≈ 2.06 µM) | 100 (≈ 66.3 µM) | 490 | 100 (≈ 66.3 µM)
N=C(N)NCCC[C@H](NC(=O)[C@H](CCCNC(=N)N)NC(=O)[C@@H](N)CCCNC(=N)N)C(=O)N[C@@H](CCCNC(=N)N)C(=O)N[C@H](C(=O)N[C@H](C(=O)N[C@@H](Cc1c[nH]c2ccccc12)C(=O)O)C(c1ccccc1)c1ccccc1)C(c1ccccc1)c1ccccc1 [IFX-028-1, NH2-R-R-R-R-Dip-Dip-Trp-OH] (H-RRRR[Dip][Dip]W-OH) | 6.2 (≈ 4.86 µM) | 6.2 (≈ 4.86 µM) | 25 (≈ 19.6 µM) | 570 | 50 (≈ 39.2 µM)
N=C(N)NCCC[C@H](NC(=O)[C@H](Cc1ccc2ccccc2c1)NC(=O)[C@H](Cc1ccc2ccccc2c1)NC(=O)[C@H](CCCNC(=N)N)NC(=O)[C@H](CCCNC(=N)N)NC(=O)[C@H](Cc1ccc2ccccc2c1)NC(=O)[C@@H](N)CCCNC(=N)N)C(=O)O [IFX-018-1, NH2-Arg-NaI-Arg-Arg-NaI-NaI-Arg-OH] (H-R[2Nal]RR[2Nal][2Nal]R-OH) | 12.5 (≈ 10.1 µM) | 25 (≈ 20.3 µM) | 25 (≈ 20.3 µM) | 405 | 50 (≈ 40.5 µM)
N=C(N)NCCC[C@@H]1NC(=O)[C@H](CCCNC(=N)N)NC(=O)[C@H](CCCNC(=N)N)NC(=O)[C@H](Cc2ccc3ccccc3c2)NC(=O)[C@H](Cc2ccc3ccccc3c2)NC(=O)[C@H](Cc2ccc3ccccc3c2)NC(=O)[C@H](CCCNC(=N)N)NC(=O)[C@H](CCCNC(=N)N)NC1=O [IFX-013, c[Arg-Arg-Arg-Arg-Arg-NaI-NaI-NaI]] (cyclo([2Nal][2Nal][2Nal]RRRRR)) | 6.2 (≈ 4.52 µM) | 6.2 (≈ 4.52 µM) | 50 (≈ 36.4 µM) | 230 | 25 (≈ 18.2 µM)
N=C(N)NCCC[C@H](NC(=O)[C@H](CCCNC(=N)N)NC(=O)[C@@H](NC(=O)[C@@H](NC(=O)[C@H](CCCNC(=N)N)NC(=O)[C@@H](N)CCCNC(=N)N)C(c1ccccc1)c1ccccc1)C(c1ccccc1)c1ccccc1)C(=O)N[C@H](C(=O)O)C(c1ccccc1)c1ccccc1 [IFX-017-1, NH2-Arg-Arg-Dip-Dip-Arg-Arg-Dip-OH] (H-RR[Dip][Dip]RR[Dip]-OH) | 12.5 (≈ 9.52 µM) | 12.5 (≈ 9.52 µM) | 25 (≈ 19 µM) | 370 | 25 (≈ 19 µM)
N=C(N)NCCC[C@H](NC(=O)[C@H](CCCNC(=N)N)NC(=O)[C@@H](N)CCCNC(=N)N)C(=O)N[C@@H](Cc1c[nH]c2ccccc12)C(=O)N[C@H](C(=O)N[C@H](C(=O)O)C(c1ccccc1)c1ccccc1)C(c1ccccc1)c1ccccc1 [IFX-020-1, NH2-R-R-R-Trp-Dip-Dip-OH] (H-RRRW[Dip][Dip]-OH) | 6.2 (≈ 5.54 µM) | 6.2 (≈ 5.54 µM) | 6.2 (≈ 5.54 µM) | 310 | 25 (≈ 22.3 µM)
N=C(N)NCCC[C@@H]1NC(=O)[C@@H](CCCNC(=N)N)NC(=O)[C@H](CCCNC(=N)N)NC(=O)[C@@H](Cc2c[nH]c3ccccc23)NC(=O)[C@H](Cc2c[nH]c3ccccc23)NC(=O)[C@@H](Cc2c[nH]c3ccccc23)NC(=O)[C@H](Cc2c[nH]c3ccccc23)NC(=O)[C@@H](CCCNC(=N)N)NC1=O [IFX-033, c[Arg-arg-Arg-arg-Trp-trp-Trp-trp]] (cyclo(R[dR]R[dR]W[dW]W[dW])) | 6.2 (≈ 4.53 µM) | 6.2 (≈ 4.53 µM) | 12.5 (≈ 9.13 µM) | 95 | 25 (≈ 18.3 µM)
N=C(N)NCCC[C@H](NC(=O)[C@H](CCCNC(=N)N)NC(=O)[C@@H](N)CCCNC(=N)N)C(=O)N[C@@H](Cc1ccc2ccccc2c1)C(=O)N[C@@H](Cc1c[nH]c2ccccc12)C(=O)N[C@@H](Cc1ccc2ccccc2c1)C(=O)O [IFX-024-1, NH2-R-R-R-NaI-Trp-NaI-OH] (H-RRR[2Nal]W[2Nal]-OH) | 6.2 (≈ 5.81 µM) | 6.2 (≈ 5.81 µM) | 12.5 (≈ 11.7 µM) | 410 | 25 (≈ 23.4 µM)
N=C(N)NCCC[C@H](NC(=O)[C@H](CCCNC(=N)N)NC(=O)[C@@H](N)CCCNC(=N)N)C(=O)N[C@@H](Cc1ccc2ccccc2c1)C(=O)N[C@@H](Cc1ccc2ccccc2c1)C(=O)N[C@@H](Cc1ccc2ccccc2c1)C(=O)O [IFX-003-1, NH2-Arg-Arg-Arg-NaI -NaI-NaI-OH] (H-RRR[2Nal][2Nal][2Nal]-OH) | 3.1 (≈ 2.87 µM) | 3.1 (≈ 2.87 µM) | 16 (≈ 14.8 µM) | 310 | 25 (≈ 23.2 µM)
N=C(N)NCCC[C@@H]1NC(=O)[C@H](CCN)NC(=O)[C@@H](CCCNC(=N)N)NC(=O)[C@H](CCCNC(=N)N)NC(=O)[C@@H](Cc2ccc3ccccc3c2)NC(=O)[C@@H](Cc2ccc3ccccc3c2)NC(=O)[C@H](Cc2c[nH]c3ccccc23)NC(=O)[C@H](CCN)NC(=O)[C@@H](CCCNC(=N)N)NC1=O [IFX-059, c[Arg-arg-Dab-Arg-arg-Dab-Trp-naI-naI]] (cyclo([Dab]R[dR][Dab]W[d2Nal][d2Nal]R[dR])) | 64 (≈ 45.5 µM) | 128 (≈ 91.1 µM) | 32 (≈ 22.8 µM) | 780 | 32 (≈ 22.8 µM)

From patent US20220289794A1, “SYNTHETIC ANTIMICROBIAL PEPTIDES” (priority 2019, published 2022)
